Results: patent publication US20140094462A1, “SONIC HEDGEHOG MODULATORS” (priority 2009, published 2014)
Like-named read-outs stand apart in the source and are kept apart here. Each block holds one compound with its values, some of them ahead of it.

Key:
[1] = target: T1, ShhN protein (Homo sapiens, UniProt Q15465); assay: Surface Plasmon Resonance (SPR) protein binding assay on immobilized ShhN
T1 construct: auto-cleavage of full length Shh into an active 20 kD N-terminal fragment (ShhN); purchased R&D Systems
Description: Biacore™ T100 (GE Healthcare, Uppsala, Sweden) was used to perform the experiments described herein. Sensor surface preparation and interaction analyses experiments were performed at 25° C.
Control surfaces were prepared similarly without protein derivatization and were utilized as a reference surfaces for compound binding experiments.
Zero concentration blank buffer cycles were included as negative control samples.
Data analysis was carried out using Biacore T100 evaluation software v1.1.1. […] Solvent correction was then applied as described previously.

[2] = test system: C3H10T1/2; assay: Induction of osteogenic differentiation (modulation of osteoblast differentiation); conditions: Mus musculus, C3H 10T1/2, read-out: IC50 (nM) C3H10T1/2
Description: Using assays previously described in Dwyer et al., J. Biol. Chem. 282, (2007), 8959-68 and Nakamura et al., Biochm. […] Res. Comm., 237 (1997) 465-9, select compounds of the invention were screened for their ability to modulate osteoblast differentiation.

[3] = rcm bond
[4] = SPR, Biacore T100, ShhN immobilized on CM4 chip, 25° C., compound 0.78 μM-25 μM, read-out: KD

T1 sequence (Q15465 24-197 limits assumed, species assumed): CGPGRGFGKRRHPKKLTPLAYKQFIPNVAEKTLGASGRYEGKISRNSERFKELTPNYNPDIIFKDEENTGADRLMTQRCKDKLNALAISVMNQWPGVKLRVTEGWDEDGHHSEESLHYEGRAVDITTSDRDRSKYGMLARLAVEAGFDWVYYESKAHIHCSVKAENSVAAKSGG

- Kd [1, 4]: 0.1 to 1 µM
- IC50 [2]: 100 to 1000 nM
Compound: CC(C)N[C@H]1C/C=C/C[C@@H](CC(=O)NCc2ccc(Cl)cc2)C(=O)NC[C@@H](c2ccccc2)OC1=O [Example DE, N-(4-chlorobenzyl)-2-((2R,6S,11S,E)-11-(isopropylamino)-5,12-dioxo-2-phenyl-1-oxa-4-azacyclododec-8-en-6-yl)acetamide]

Compound: CC(C)(C)[Si](C)(C)O[C@@H]1C/C=C/CCC(=O)N[C@H](c2ccccc2)COC1=O
- ring closure, yield of all isomers ([3]; from C=CCCC(=O)N[C@@H](COC(=O)[C@@H](CC=C)O[Si](C)(C)C(C)(C)C)c1ccccc1, toluene): 65%

Compound: CC1=CC[C@@H](C)C(=O)OC[C@@H](c2ccccc2)NC(=O)CC1
- ring closure, yield of all isomers ([3]; from C=CC[C@@H](C)C(=O)OC[C@H](NC(=O)CCC(=C)C)c1ccccc1, toluene, 3 steps): 26%

Compound: C[C@@H]1C/C=C/CCC(=O)N[C@H]2CCC[C@@H]2OC1=O
- ring closure, yield of all isomers ([3]; from C=CCCC(=O)N[C@H]1CCC[C@@H]1OC(=O)[C@H](C)CC=C, toluene): 25.5%

Compound: C[C@@H]1CC=CCCC(=O)N[C@@H](c2ccccc2)COC1=O
- ring closure, yield of all isomers ([3]; from C=CCCC(=O)N[C@H](COC(=O)[C@H](C)CC=C)c1ccccc1, toluene, 25.0 °C, 16.0 h): 72%

- Kd [1, 4]: < 0.1 µM
- IC50 [2]: 100 to 1000 nM
Compound: O=C(C[C@@H]1C/C=C/CCC(=O)N[C@H](c2ccccc2)COC1=O)NCc1ccc(Cl)nc1 [Example DD, N-((6-chloropyridin-3-yl)methyl)-2-((3R,11S,E)-5,12-dioxo-3-phenyl-1-oxa-4-azacyclododec-8-en-11-yl)acetamide]

- Kd [1, 4]: < 0.1 µM
- IC50 [2]: 1000 to 100000 nM
Compound: C[C@@H]1CCCCCC(=O)N[C@H](c2ccccc2)COC1=O [Example J, (3R,11R)-11-methyl-3-phenyl-1-oxa-4-azacyclododecane-5,12-dione]

- Kd [1, 4]: 0.1 to 1 µM
- IC50 [2]: > 100000 nM
Compound: C[C@@H]1C/C=C/C[C@@H](N)C(=O)N[C@H](c2ccccc2)COC1=O [Example M, (3R,6R,11R,E)-6-amino-11-methyl-3-phenyl-1-oxa-4-azacyclododec-8-ene-5,12-dione]

- Kd [1]: 1 to 100 µM
- IC50 [2]: > 100000 nM
Compound: O=C(C[C@@H]1C/C=C/CCC(=O)O[C@H](c2ccccc2)CNC1=O)NCc1ccc([N+](=O)[O-])cc1 [Example DQ, 2-((2R,6S,E)-5,12-dioxo-2-phenyl-1-oxa-4-azacyclododec-8-en-6-yl)-N-(4-nitrobenzyl)acetamide]

- IC50 [2]: > 100000 nM
Compound: CCOCCNC(=O)C[C@@H]1C/C=C/CCC(=O)O[C@H](c2ccccc2)[C@H](C)N(C)C1=O [Example DR, 2-((2R,3S,6S,E)-3,4-dimethyl-5,12-dioxo-2-phenyl-1-oxa-4-azacyclododec-8-en-6-yl)-N-(2-ethoxyethyl)acetamide]

- Kd [1, 4]: < 0.1 µM
- IC50 [2]: 1000 to 100000 nM
Compound: O=C1CC/C=C/C[C@@H](O)C(=O)OC[C@@H](c2ccccc2)N1 [Example H, (3R,11R,E)-11-hydroxy-3-phenyl-1-oxa-4-azacyclododec-8-ene-5,12-dione]

Compound: C[C@H]1C/C=C/CCC(=O)OC[C@@H]2CCCN2C1=O
- ring closure, yield of all isomers ([3]; from C=CCCC(=O)OC[C@@H]1CCCN1C(=O)[C@@H](C)CC=C, toluene, 3 steps): 25%

Compound: C[C@@H]1COC(=O)[C@H](C)C/C=C/CCC(=O)N1
- ring closure, yield of all isomers ([3]; from C=CCCC(=O)N[C@H](C)COC(=O)[C@H](C)CC=C, toluene, 3 steps): 38%

- Kd [1, 4]: 1 to 100 µM
Compound: C[C@@H]1C/C=C/CC(C)(C)C(=O)N[C@H](c2ccccc2)COC1=O [Example AY, (3R,11R,E)-6,6,11-trimethyl-3-phenyl-1-oxa-4-azacyclododec-8-ene-5,12-dione]
- ring closure, yield of all isomers ([3]; from C=CC[C@@H](C)C(=O)OC[C@H](NC(=O)C(C)(C)CC=C)c1ccccc1, toluene): 81%

- Kd [1, 4]: 1 to 100 µM
Compound: C[C@@H]1C/C=C/CCC(=O)OC[C@@H]2CCCN2C1=O [Example BD, (9R,14aS,E)-9-methyl-4,5,8,9,12,13,14,14a-octahydro-1H-pyrrolo[2,1-c][1,4]oxaazacyclododecine-3,10-dione]
- ring closure, yield of all isomers ([3]; from C=CCCC(=O)OC[C@@H]1CCCN1C(=O)[C@H](C)CC=C, toluene): 42%

Compound: C[C@@H]1C/C=C/C[C@H](C)C(=O)N[C@H](c2cccs2)COC1=O
- ring closure, yield of all isomers ([3]; from C=CC[C@@H](C)C(=O)OC[C@H](NC(=O)[C@@H](C)CC=C)c1cccs1, toluene): 74.7%

Compound: C[C@H]1[C@@H](c2ccccc2)OC(=O)CC/C=C/C[C@@H](NC(=O)OCC2c3ccccc3-c3ccccc32)C(=O)N1C
- ring closure, yield of all isomers ([3]; from C=CCCC(=O)O[C@H](c1ccccc1)[C@H](C)N(C)C(=O)[C@@H](CC=C)NC(=O)OCC1c2ccccc2-c2ccccc21, toluene): 16%

Compound: C[C@@H]1C/C=C/CCC(=O)N[C@H]2CCC[C@H]2OC1=O
- ring closure, yield of all isomers ([3]; from C=CCCC(=O)N[C@H]1CCC[C@H]1OC(=O)[C@H](C)CC=C, toluene): 32.4%

Compound: CN1C/C=C/CCC(=O)N[C@H](c2ccccc2)COC1=O
- ring closure, yield of all isomers ([3]; from C=CCCC(=O)N[C@@H](COC(=O)N(C)CC=C)c1ccccc1, DCM): 45%

- Kd [1, 4]: > 100 µM
Compound: C[C@@H]1C/C=C/CCC(=O)O[C@H](c2ccccc2)CNC1=O [Compound BP, (2R,6R,E)-6-methyl-2-phenyl-1-oxa-4-azacyclododec-8-ene-5,12-dione]
- ring closure, yield of all isomers ([3]; from C=CCCC(=O)O[C@@H](CNC(=O)[C@H](C)CC=C)c1ccccc1, toluene): 79%

- IC50 [2]: < 100 nM
Compound: CS(=O)(=O)N[C@@H]1C/C=C/CCC(=O)N[C@H](c2ccccc2)COC1=O [Example A, N-((3R,11R,E)-5,12-dioxo-3-phenyl-1-oxa-4-azacyclododec-8-en-11yl)-methane sulfonamide]

Compound: CC1C/C=C/CCC(=O)N[C@H](c2ccccc2)COC1 (stereo partly drawn) [(3R,E)-11-methyl-3-phenyl-1-oxa-4-azacyclododec-8-en-5-one]
- ring closure, yield of all isomers ([3]; from C=CCCC(=O)N[C@@H](COCC(C)CC=C)c1ccccc1, toluene, 2 steps): 0.5%

Compound: C[C@@H]1C/C=C/CCC(=O)OC[C@H]2CCCN2C1=O
- ring closure, yield of all isomers ([3]; from C=CCCC(=O)OC[C@H]1CCCN1C(=O)[C@H](C)CC=C, toluene, 3 steps): 20%

Compound: C[C@@H]1COC(=O)C(C)(C)C/C=C/CCC(=O)N1
- ring closure, yield of all isomers ([3]; from C=CCCC(=O)N[C@H](C)COC(=O)C(C)(C)CC=C, toluene, 3 steps): 8%

- Kd [1, 4]: 1 to 100 µM
Compound: C[C@@H]1C/C=C/CCC(=O)O[C@H](c2ccccc2)[C@H](C)N(C)C1=O [Example BC, (2R,3S,6R,E)-3,4,6-trimethyl-2-phenyl-1-oxa-4-azacyclododec-8-ene-5,12-dione]
- ring closure, yield of all isomers ([3]; from C=CCCC(=O)O[C@H](c1ccccc1)[C@H](C)N(C)C(=O)[C@H](C)CC=C, toluene): 10%

Compound: O=C1CCC=CCN(Cc2ccc(Cl)cc2)C(=O)OC[C@@H](c2ccccc2)N1
- ring closure, yield of all isomers ([3]; from C=CCCC(=O)N[C@@H](COC(=O)N(CC=C)Cc1ccc(Cl)cc1)c1ccccc1, toluene): 25%

Compound: C[C@@H]1C/C=C/CCC(=O)N[C@@H](C)COC1=O
- ring closure, yield of all isomers ([3]; from C=CCCC(=O)N[C@@H](C)COC(=O)[C@H](C)CC=C, toluene, 3 steps): 35%

- Kd [1, 4]: > 100 µM
Compound: C[C@H]1C/C=C/CCC(=O)N[C@H](c2ccccc2)COC1=O [Example BS, (3R,11S,E)-11-methyl-3-phenyl-1-oxa-4-azacyclododec-8-ene-5,12-dione]
- ring closure, yield of all isomers ([3]; from C=CCCC(=O)N[C@@H](COC(=O)[C@@H](C)CC=C)c1ccccc1, toluene): 44%

Compound: C[C@@H]1C/C=C/CCC(=O)N[C@@H]2c3ccccc3C[C@H]2OC1=O
- ring closure, yield of all isomers ([3]; from C=CCCC(=O)N[C@@H]1c2ccccc2C[C@H]1OC(=O)[C@H](C)CC=C, DCM): 61.8%

Compound: C[C@@H]1C/C=C/CCCC(=O)N[C@H](c2ccccc2)COC1=O
- ring closure, yield of all isomers ([3]; from C=CCCCC(=O)N[C@@H](COC(=O)[C@H](C)CC=C)c1ccccc1, toluene): 67%

Compound: C[C@@H]1[C@@H](c2ccccc2)OC(=O)CC/C=C/C[C@@H](NC(=O)OC(C)(C)C)C(=O)N1C
- ring closure, yield of all isomers ([3]; from C=CCCC(=O)O[C@H](c1ccccc1)[C@@H](C)N(C)C(=O)[C@@H](CC=C)NC(=O)OC(C)(C)C, toluene): 60%

Compound: C[C@@H]1CC=CC[C@@H](O[Si](C)(C)C(C)(C)C)C(=O)N[C@H](c2ccccc2)COC1=O
- ring closure, yield of all isomers ([3]; from C=CC[C@@H](C)C(=O)OC[C@H](NC(=O)[C@@H](CC=C)O[Si](C)(C)C(C)(C)C)c1ccccc1, toluene): 58%

Compound: C[C@@H]1C/C=C/C[C@H](C)C(=O)N[C@H](c2ccccn2)COC1=O
- ring closure, yield of all isomers ([3]; from C=CC[C@@H](C)C(=O)OC[C@H](NC(=O)[C@@H](C)CC=C)c1ccccn1, toluene): 89%

- IC50 [2]: 100 to 1000 nM
Compound: O=C1CC/C=C/CCC(=O)OCC(c2ccccc2)N1 (stereo not drawn) [F]

Compound: CC(C)(C)OC(=O)N[C@@H]1C/C=C/CCC(=O)OC[C@@H]2CCCN2C1=O
- ring closure, yield of all isomers ([3]; from C=CCCC(=O)OC[C@@H]1CCCN1C(=O)[C@@H](CC=C)NC(=O)OC(C)(C)C, toluene): 19%

Compound: CC(C)(C)OC(=O)N[C@@H]1C/C=C/CCC(=O)N[C@H](c2ccccc2)COC1=O
- ring closure, yield of all isomers ([3]; from C=CCCC(=O)N[C@@H](COC(=O)[C@@H](CC=C)NC(=O)OC(C)(C)C)c1ccccc1, Grubbs II, DCM, 20.0 mM, 25.0 °C, 3.0 h): 64%

- Kd [1, 4]: < 0.1 µM
Compound: O=C1CC/C=C/C[C@@H](Cc2ccc(Cl)cc2)C(=O)NC[C@@H](c2ccccc2)O1 [Example BQ, (2R,6S,E)-6-(4-chlorobenzyl)-2-phenyl-1-oxa-4-azacyclododec-8-ene-5,12-dione]
- ring closure, yield of all isomers ([3]; from C=CCCC(=O)O[C@@H](CNC(=O)[C@@H](CC=C)Cc1ccc(Cl)cc1)c1ccccc1, toluene): 51%

- IC50 [2]: > 100000 nM
Compound: C[C@@H]1CCCCC(F)(F)C(=O)N[C@H](c2ccccc2)COC1=O [Example L, (3R,11R)-6,6-difluoro-11-methyl-3-phenyl-1-oxa-4-azacyclododecane-5,12-dione]

Compound: C[C@@H]1C/C=C/C[C@@H](NC(=O)OCC2c3ccccc3-c3ccccc32)C(=O)N[C@H](c2ccccc2)COC1=O
- ring closure, yield of all isomers ([3]; from C=CC[C@@H](C)C(=O)OC[C@H](NC(=O)[C@@H](CC=C)NC(=O)OCC1c2ccccc2-c2ccccc21)c1ccccc1, DCM): 75%
